The values below come from patent US20090123419A1, “TREATMENT OF UTERINE CANCER AND OVARIAN CANCER WITH A PARP INHIBITOR ALONE OR IN COMBINATION WITH ANTI-TUMOR AGENTS” (BiPar Sciences, priority 2007, published 2009).

Each structure is given as a SMILES string. Read-outs that look alike come from different tables or passages of the source.

The test system of series [1] is panel of 63 other kinases, including native c-Abl. Particulars: cited from earlier work.
Series [2] deals with cells not expressing Bcr-Abl. To be noted: cited from earlier work.
For series [3], the system named is advanced or recurrent endometrial cancer. Particulars: single agent; cited from earlier work.
Series [4] concerns carcinosarcoma of the uterus. To be noted: single agent; cited from earlier work.
A further series relates to endometrial carcinoma. Particulars: cited from earlier work.
Series [5] concerns carcinosarcoma of the uterus. Particulars: cited from earlier work.
Series [6] has as its system carcinosarcoma of the uterus. Particulars: cited from earlier work. The source holds these as a separate data set.
The subject of the next series is advanced solid tumors. In words: Phase 1b study of BA in combination with chemotherapy, clinical response via RECIST. The series is classed as in vivo, human. Particulars: number of subjects; chemotherapy in combination with BA. How it is done:
The protocol has been amended to evaluate BA in combination with chemotherapy in specific tumor types.
BA plus cytotoxic chemotherapy (CTX)
BA Dosing: • Twice weekly; i.v. infusion • Standard 3+3 design for BA dose escalation • Dose levels studied: 2.0, 2.8, 4.0, 5.6, 8.0, and up to 11.2 mg/kg
Clinical response via RECIST every 2 cycles
Subjects— 18 years old with a refractory, advanced solid tumor, ECOG PS of <=2, and adequate hematological, renal, and hepatic function
No restriction on number of prior chemotherapeutic regimens

Series [7] relates to persistent or recurrent nonsquamous cell carcinoma of the cervix. Particulars: cited from earlier work.
The test system of series [8] is advanced endometrial cancer. Particulars: of 29 patients enrolled; preliminary data analysis; cited from earlier work.

Regarding `NC(=O)c1cccc(-c2cc(Nc3ccc(OC(F)(F)F)cc3)ncn2)c1` [GNF-2], in [1], the “inhibition of a panel of 63 other kinases” value is reported as “does not inhibit”. For the same molecule, the “toxicity towards cells not expressing Bcr-Abl” value in series [2] is given as “complete lack of toxicity”.

For `CC(=O)O[C@H]1C(=O)[C@@]2(C)[C@H]([C@H](OC(=O)c3ccccc3)[C@]3(O)C[C@H](OC(=O)[C@H](O)[C@@H](NC(=O)c4ccccc4)c4ccccc4)C(C)=C1C3(C)C)[C@]1(OC(C)=O)CO[C@@H]1C[C@@H]2O` [paclitaxel], the response rate in series [3] is 36%; in [4], 18.2%.

With `COc1cccc2c1C(=O)c1c(O)c3c(c(O)c1C2=O)C[C@@](O)(C(=O)CO)C[C@@H]3O[C@H]1C[C@H](N)[C@H](O)[C@H](C)O1` [doxorubicin], the response rate in series [4] is 9.8%. Besides, the “response rate (RR)” value with endometrial carcinoma (doxorubicin 60 mg/m^2, cisplatin 50 mg/m^2, p=0.004) is on record as 25%. Moreover, the PFS with endometrial carcinoma (in vivo) is 3.8 months. For the same molecule, the OS in the series on endometrial carcinoma (no difference observed) is listed as 9 months.

`COc1cc([C@@H]2c3cc4c(cc3[C@@H](O[C@@H]3O[C@@H]5CO[C@@H](C)O[C@H]5[C@H](O)[C@H]3O)[C@H]3COC(=O)[C@H]23)OCO4)cc(OC)c1O` [etoposide]: the response rate in series [4] was 6.5%.

In the case of `O=P1(NCCCl)OCCCN1CCCl` (centres unmarked) [ifosfamide], the response rate was 32.2% in series [4], 29% in series [5] (second randomized trial) and 36% in series [6] (randomized phase III trial). Besides, the median progression-free survival in series [5] (p=0.03) is reported as 3.6 months; in [6] (p=0.02) it was 4 months. The median survival is on record as 8.4 months in series [5] (p=0.03) and 7.6 months in series [6] (p=0.07). Further, the toxicity result in series [5] (use of ifosfamide) is reported as “significant toxicity”.

As to `CC[C@@]1(O)C(=O)OCc2c1cc1n(c2=O)Cc2cc3c(CN(C)C)c(O)ccc3nc2-1` [topotecan], the response rate in [4] is on record as 10%. In the series with advanced solid tumors, the “CR + PR” value was 1.

Consider `N.N.[Cl][Pt][Cl]` [cisplatin], for which, in [4], the response rate is recorded as 18%.

For `Nc1ccn(C2OC(CO)C(O)C2(F)F)c(=O)n1` (centres unmarked) [Gemcitabine, 4-amino-1-[3,3-difluoro-4-hydroxy-5-(hydroxymethyl)tetrahydrofuran-2-yl]-1H-pyrimidin-2-one], the “CR + PR” value in the series with advanced solid tumors was 3.

As to `Cn1nnc2c(C(N)=O)ncn2c1=O` [Temozolomide, temozolomide], in the series with advanced solid tumors, the “CR + PR” value was determined as 1.

For the molecule `CC/C(=C(\c1ccccc1)c1ccc(OCCN(C)C)cc1)c1ccccc1` [tamoxifen], in series [7] (27 evaluable for response), the complete responses result is recorded as “one” and the partial responses result is on record as “two”. For the same molecule, in series [7] (32 patients evaluable for adverse effects), the “grades 3 and 4 adverse effects reported” value is “six”. Moreover, the “antitumor activity, conclusion” value in series [7] (in vivo) was “minimal activity”. For the same molecule, in [7] (tamoxifen citrate 10 mg orally twice a day, 27 evaluable for response), the objective response rate is 11.1%.

With `COc1cc2ncnc(Nc3ccc(F)c(Cl)c3)c2cc1OCCCN1CCOCC1` [ZD1839, gefitinib], in series [8], the “patients with complete response” value is on record as 1 patient and the “patients with stable disease at 6 months” value was “several”.
